This test deals with T1, wild-type K-Ras protein (Homo sapiens, UniProt P01116).
T1 construct: expressed in transfected cells; host or cells: HeLa cells, transient transfection
The test is described as follows: Degradation (knockdown) of forcibly expressed wild-type K-Ras protein in HeLa cells, Western blot analysis. Type of test: cell-based. As for the experimental part: A plasmid expressing the wild-type K-Ras protein (K-Ras-WT) was prepared, as in Reference Example 1.
As in Reference Example 1, the plasmid was introduced into HeLa cells to transiently overexpress the wild-type K-Ras protein (specifically, a fusion protein of the wild-type K-Ras protein and GFP through a HA tag) or a DsRed protein for comparison in the cells. HeLa cells into which the plasmid had been introduced were seeded in a 24-well plate at a cell density of 4×10^4 cells/well, and then cultured under conditions of 37° C. and 5 vol % CO2 for 40 hours.
Culture was performed for 40 hours after introduction of the plasmid, and then TUS-007 was added to HeLa cells as follows. As a medium, a serum-free medium (37° C.) in which 1 mass % L-glutamine solution (Sigma-Aldrich) was added to D-MEM (high D-glucose, phenol red, sodium pyruvate (Wako Pure Chemical Industries, Ltd.)) was used. […]
After electrophoresis, proteins were transferred to a PVDF membrane (Immobion™-P, Millipore) under conditions of 100 V and 120 minutes using a tank-type blotting device and a transfer buffer (25 mM Tris-HCl, 195 mM glycine, 0.01% SDS, 15% methanol). […] Subsequently, the membrane was treated with a chemiluminescence reagent Immobilon™ Western (Millipore), and then chemiluminescence was detected using a lumino image analyzer LAS-3000 (FUJIFILM Corporation). […]
(In general: In western blotting, separated proteins are transferred to a membrane and probed.)

T1 sequence (P01116 1-188 isoform P01116-2): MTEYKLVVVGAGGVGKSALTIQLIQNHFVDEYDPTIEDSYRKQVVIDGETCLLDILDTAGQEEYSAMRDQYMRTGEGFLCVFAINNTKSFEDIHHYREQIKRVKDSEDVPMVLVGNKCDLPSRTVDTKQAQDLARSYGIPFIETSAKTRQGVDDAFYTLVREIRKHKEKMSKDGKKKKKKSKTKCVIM

With `CC[C@@H](C)[C@H](NC(=O)CCCCCCNC(=O)[C@H](CC(C)C)NC(=O)CNC(=O)c1cc(Cl)ccc1Cl)C(=O)Nc1ccc2[nH]c(Cc3c[nH]c4ccccc34)nc2c1` [TUS-007], the “amount of wild-type K-Ras protein” value (24 hours after addition, relative to control (DMSO)) is given as “the amount of the wild-type K-Ras protein was reduced”. Besides, the “amount of wild-type K-Ras protein when MLN2238 is added together” value (both TUS-007 and MLN2238 added) is listed as “the amount of the wild-type K-Ras protein was increased as compared with the amount of the control (DMSO)”.

The values above are taken from patent publication US20190369111A1, “MOLECULAR KINETICS EVALUATION METHOD AND SCREENING METHOD” (Tokyo University of Science Foundation, priority 2016, published 2019).
